Values after ≈ are worked out from the molar mass of the structure shown. Values joined by “and” are separate entries in the source; they are usually repeats but may differ in a detail not shown here. Identical values can stand only once.
Legend:
Assay type in all cases: functional
[1] = system: Chlamydia pneumoniae; assay: Antimicrobial activity against Chlamydophila pneumoniae isolated from human respiratory tract by broth microdilution method
[2] = system: Metamycoplasma hominis; assay: Antimicrobial activity against Mycoplasma hominis isolated from human respiratory tract by broth microdilution method
[3] = system: Chlamydia trachomatis; assay: Antimicrobial activity against Chlamydia trachomatis isolated from human respiratory tract by broth microdilution method

**Q.** How did the MIC [1] turn out when `CC[C@H]1OC(=O)[C@H](C)[C@@H](O[C@H]2C[C@@](C)(OC)[C@@H](O)[C@H](C)O2)[C@H](C)[C@@H](O[C@@H]2O[C@H](C)C[C@H](N(C)C)[C@H]2O)[C@](C)(O)C[C@@H](C)C(=O)[C@H](C)[C@@H](O)[C@]1(C)O` [ERYTHROMYCIN] was run?
**A.** Its MIC is 0.5 µg/mL (≈ 0.681 µM).

**Q.** And the MIC [2]?
**A.** Its MIC is 16 µg/mL and 32 µg/mL.

**Q.** What about the MIC [3] of the same compound?
**A.** The MIC was 0.12 µg/mL and 0.25 µg/mL.

From ChEMBL document CHEMBL1255340, “In vitro activities of the Rx-01 oxazolidinones against hospital and community pathogens” (2008)
